{"source": "patent US5929082A", "about": "“Potassium ion channel blockers” (priority 1995, dated 1999)", "key": {"[1]": {"details": "Cohen, 1986; cited from earlier work"}, "[2]": {"test_system": "MCF-7 mammary carcinoma cells", "assay": "Thymidine uptake ([methyl-3H] thymidine incorporation into DNA)", "format": "cell-based, human", "details": "100 μM (printed 100 μH / 100 mM), compared to control group; Glibenclamide n=3, Compound 1-24 n=4", "procedure": "Incorporation of [methyl-3H] thymidine into DNA was measured as described by Murphy and Lazarus (1983), using MCF-7 mammary carcinoma cells treated with compound 1-24 (100 μH) and a control group. The growth medium from cells cultured as described in Example 24 was aspirated from the wells, and 1 mL of fresh growth medium containing 1 μCi [3H]-thymidine (Amersham) was added to each well After 4 hours incubation, the medium was aspirated and the monolayers were washed three times with ice cold phosphate buffered saline (ICN). This was followed by three washes with 10% (v/v) ice cold trichloroacetic acid, each of 5 minutes duration. After another three washes with absolute ethanol at room temperature of 5 minutes duration, the monolayer was dried at room temperature for 10 minutes. The monolayer was […] after incubation for 12 hours with 0.5 N NaOH and 1% Triton-X 100 (Sigma). An aliquot of the cell lysate was added to 10 ml of Ultima Gold (Packard) and counted using a liquid scintillation counter (Packard model 19006A)."}, "[3]": {"assay": "Kinetic/metabolite studies: HPLC analysis of plasma after oral administration", "format": "in vivo, Sprague-Dawley rats", "procedure": "Plasma samples were collected in order to test the correlation of plasma drug (or metabolite) concentration with hypoglycaemic activity, and to determine whether compounds of the invention were converted in vivo into active metabolites. The plasma levels of test compounds or metabolites also give an indication of rate of metabolism and kinetics of drug action.\nBlood samples collected from rats treated as above and collected at the same intervals were analysed using an ICI LC1150 HPLC system and a LC1210 UV detector at a wavelength of 227 nm. The HPLC system used a Merck LiChroCART 125-4 LiChrosphere 100 RP-18 HPLC and LiChrosphere 100 RP-18 guard columns. The mobile phase consisted of 70% acetonitrile and a 30% aqueous sodium phosphate buffer at pH 7.45 and was prepared using standard HPLC grade reagents and distilled water. To improve the resolution of peaks and separation of the compounds a gradient method was established where changes in the concentration of the required buffers and solvents, and the time at which these changes occur is outlined in Table 7. The volumes are expressed as percentages of the total flow rate, with the flow rate remaining constant at […].\nThe data were acquired using the WinChrom Data Management system and were calibrated using stock solutions of the test compounds and Glibenclamide as an internal standard dissolved in 100% methanol\nPlasma (250 μL) collected from the rats were extracted into methanol (700 μL) and 50 μL of Glibenclamide (25 μg/ml). The mixture was then agitated with a vortex mixer for 15 sec and centrifuged for 10 min. The clear supernatant was then carefully aspirated for HPLC analysis.\nThe results are outlined in Table 8 and show retention times (minutes) for the compounds and their metabolites as analysed by HPLC after oral administration in Sprague-Dawley rats. […] Glibenclamide is shown for comparison only, none of the metabolites observed with the test compounds correspond to metabolites of Glibenclamide."}, "[4]": {"test_system": "MCF-7 human mammary carcinoma cells", "details": "Woodfork et al, 1995, cited from earlier work"}, "[5]": {"parameters": "species or system Sprague-Dawley rats", "details": "rat, in vivo, po", "procedure": "Representative compounds were evaluated for their effect on glucose tolerance following oral administration at doses ranging from 0.005 mg/kg to 100 mg/kg. Normal male Sprague-Dawley rats were dosed with a test compound daily for five days, and were fasted overnight prior to days 1 and 5. Control animals were given ether vehicle only, or Glibenclamide (glyburide; N-[4-(β-)(2-methoxy-5-chlorobenzamido)ethyl)benzosulphonyl)-N'-cyclohexylurea]; 2 mg/kg/day). Blood was collected on day zero and on days one and five at 0, 0.5, 1, 1.5 and 2 hours after drug administration. Blood glucose concentrations were then measured in duplicate using standard glucose oxidase analysis. The samples were assayed using a Hitachi U-200 Spectrophotometer at a wavelength of 505 nm. The weight gain of each rat was also measured over the five day period, and all results were compared to both the negative control group (dosing with vehicle only) and the positive control group (dosing with Glibenclamide). […] Doses of drugs administered were minimised so as to reduce differences in weight gain whilst retaining hypoglycaemic activity. […]\nEach point represents the effect of each dose on the rats glucose tolerance or ability to gain weight, expressed as a percentage of the control (normal) response (where control=100% response). […]"}, "rat heart": {"test_system": "rat heart", "details": "1 μM, rat heart stimulated at 5 Hz; Kantor et al, 1987; cited from earlier work"}, "[6]": {"assay": "Hypoglycaemic activity: change in blood glucose after oral gavage", "format": "in vivo, Sprague Dawley rats", "details": "1.6 mg/kg oral gavage, normal fed male rats", "procedure": "The biological activity of representative compounds of the invention was evaluated by means of several different tests. The activity of compounds of this invention as hypoglycaemic agents was measured and compared with the activity of the known compound of Example 1, using methods described in the literature. Thus normal, fed male Sprague Dawley rats weighing between 275 and 375 g were studied for changes in blood sugar levels and alterations to mean arterial blood pressure following administration of representative compounds of the invention suspended in a 5% solution of gum acacia by oral gavage at a dose of 1.6 mg/kg. The concentration of each compound was 4 mg in 10 ml, so that each rat received 1.1-1.5 ml to obtain the desired dose on a body weight basis. The blood sugar levels were recorded for each rat immediately prior to administration, and at 1, 2, and 3 hr following administration of the test compounds. Blood glucose levels were determined on blood samples taken from the tail, and analysed on an Ames blood glucometer, model 5626, and Ames, 2627 blood glucose strips (number 2). […] It is apparent that generally the heterocyclic sulphonylthioureas have greater activity than the sulphonylureas. Without wishing to be bound by any proposed mechanism for the observed effect, we believe that this may be associated with differences in lipid permeability."}, "[7]": {"test_system": "MCF-7 human mammary carcinoma cells", "details": "concentration-dependent; Woodfork et al, 1995; read-out: IC50, inhibition of cell proliferation; cited from earlier work"}, "[8]": {"test_system": "MCF-7 human mammary carcinoma cells", "assay": "Cell proliferation of MCF-7 tumour cells", "format": "cell-based", "details": "100 μM compound", "procedure": "The ability of a representative compound of the invention to inhibit proliferation of a tumour cell line was examined. MCF-7 human mammary carcinoma cells (Woodfork et al, 1995) were grown in 25 cm^2 Corning flasks in a 5% CO2 water jacket incubator. The medium used for the culture was RPMI 1640 (ICN) and was supplemented with 10% foetal Bovine serum (Cytosystems).\nCells and medium were examined daily to check for growth and infection. The medium was changed every second day. When cells reached 70-80% confluence, the cells were trypsinized with 0.05% trypsin (1:250, \"DIFCO\") and 0.02% EDTA.\nThe flasks were firstly washed with a phosphate buffer to remove residual RPMI 1640 medium, then covered with 2 mL of the trypsin solution and left in the incubator for 3-5 minutes. The cells were then transferred to a conical tube containing 2 mL of medium and 10% foetal bovine serum. The cells were centrifuged at 1000 rpm for 3 minutes and the supernatant removed 5 ml of the medium was then added to the pellet of cells and resuspended with a 2 ml pipette.\nApproximately 10 μL of medium containing the cells was placed in a Neubauer haemocytometer, and the cells were counted in the 4×1 mm^2 grid per chamber. Cells were then diluted to contain 60×10^4 cells to be added to \"Corning\" 24 well plates (16 mm diameter). Wells respectively containing the control group and 100 μM compound 1-24 were established, and 3 wells/group/day were used to perform the cell growth study.\nEach well contained 500 μL of medium or of compound 1-24. Plates were incubated for 24 hours before counting. The medium was aspirated with different pipette tips for the different study groups 100 μL of 0.02% EDTA solution was added to each well and incubated for 5 minutes. 200 μL of trypsin-EDTA was then added, and the cells incubated for a further 5 minutes, aspirated, and placed in 0.5 mL Eppendorf tubes before counting in a haemocytometer."}, "[9]": {"test_system": "isolated guinea pig atria", "assay": "Cardiac effects on isolated atrial preparations", "parameters": "species or system English short-haired guinea pigs", "details": "bath concentration 8×10^-6 M, 37° C., maximum responses", "procedure": "Preliminary investigations were performed on isolated atrial preparations, and the results obtained using representative compounds of the invention compared to those obtained using the known compound of Example 1 and using Glibenclamide. English short-haired guinea pigs weighing between 200 and 300 g were killed by cervical dislocation. The whole heart was quickly removed by dissection and immersed in a Krebs-Henseleit solution, which had been aerated with carbogen (95% oxygen and 5% carbon dioxide). The atria were then separated by dissection in Krebs-Henseleit solution, whilst being aerated with carbogen.\nThe atria were then immersed in a 10 ml organ bath containing Krebs-Henseleit solution, maintained at 37° C. for the duration of the experiment by the circulation of water through the water jackets of organ baths by a temperature controlled water pump (Braun Thermomix, Germany), and aerated with carbogen. […] Changes in tension were measured by isometric force transducers and were recorded on a four channel Grass 7P Polygraph (Grass Instruments, Quincy, Mass., USA) which was calibrated daily such that the atria functioned with a resting tension of 1 g. The rate of beating of the atria was measured by the tachograph.\nThe activity of each test compound was assessed and compared to that of glibenclamide. […]"}, "[10]": {"details": "after oral administration, HPLC"}}, "data": [{"smiles": "CC(N/C(=N\\C#N)Nc1ccncc1)C(C)(C)C", "note": "(stereo not shown) [pinacidil]", "values": [{"measurement": "vasodilator activity", "setting": "[1]", "value": "vasodilator activity"}]}, {"smiles": "COc1ccc(Cl)cc1C(=O)NCCc1ccc(S(=O)(=O)NC(=O)NC2CCCCC2)cc1", "note": "[Glibenclamide, reference compound]", "values": [{"measurement": "inhibition of thymidine uptake", "setting": "[2]", "value": "significant inhibition"}, {"measurement": "Compound in plasma", "setting": "[3]; [10]", "value": "no"}, {"measurement": "accumulation at the G0/G1 phase in cell cycle distribution", "setting": "[4]", "value": "statistically significant accumulation at the G0/G1 phase"}, {"measurement": "cell-cycle arrest", "setting": "[4]; inhibition of KATP channels", "value": "reversible cell-cycle arrest"}, {"measurement": "weight gain over a five day period", "setting": "[5]", "value": "decreased their observed weight gain"}, {"measurement": "effect on ischaemia-induced ventricular arrhythmias / K+ loss", "setting": "rat heart", "value": "prevent or reduce ischaemia-induced ventricular arrhythmias"}, {"measurement": "Change in Blood Glucose, 0 hours", "setting": "[6]", "value": 0.0, "unit": "mmol/L"}, {"measurement": "Change in Blood Glucose, 1 Hour", "setting": "[6]", "value": 0.6, "unit": "mmol/L"}, {"measurement": "Change in Blood Glucose, 2 Hours", "setting": "[6]", "value": -2.1, "unit": "mmol/L"}, {"measurement": "Change in Blood Glucose, 3 Hours", "setting": "[6]", "value": -2.4, "unit": "mmol/L"}, {"measurement": "IC50", "setting": "[7]", "value": 50, "unit": "µM"}]}, {"smiles": "CCOc1cccc(NC(=S)NS(=O)(=O)c2ccc(C)cc2)n1", "note": "[Compound 1-24]", "values": [{"measurement": "inhibition of thymidine uptake", "setting": "[2]", "value": "significant inhibition"}, {"measurement": "Compound in plasma", "setting": "[3]; [10]", "value": "no"}, {"measurement": "metabolites observed in plasma", "setting": "[3]; after oral administration, HPLC, in words", "value": "numerous metabolites in the plasma"}, {"measurement": "time within which the compound is metabolised after administration", "setting": "[3]; oral administration", "value": "≤ 2", "unit": "h"}, {"measurement": "doubling rate of control group greater than that of cells exposed to compound", "setting": "[8]", "value": "approximately 25%"}, {"measurement": "Rate of cell growth: mean cell number, Day 0", "setting": "[8]; day 0, n=1 in triplicate", "value": "60,000"}, {"measurement": "Rate of cell growth: mean cell number, Day 1", "setting": "[8]; day 1, control 58,000", "value": "74,000"}, {"measurement": "Rate of cell growth: mean cell number, Day 2", "setting": "[8]; day 2, control 110,000", "value": "93,000"}, {"measurement": "Rate of cell growth: mean cell number, Day 3", "setting": "[8]; day 3, control 188,000", "value": "143,000"}, {"measurement": "Rate of cell growth: mean cell number, Day 6", "setting": "[8]; day 6, control 355,000", "value": "230,000"}, {"measurement": "effect on MCF-7 tumour cell proliferation", "setting": "[8]; in words", "value": "reduces MCF-7 tumour cell proliferation"}, {"measurement": "inotropic activity", "setting": "[9]", "value": "particularly marked inotropic activity"}, {"measurement": "Change in Blood Glucose, 0 hours", "setting": "[6]", "value": 0.0, "unit": "mmol/L"}, {"measurement": "Change in Blood Glucose, 1 Hour", "setting": "[6]", "value": 0.5, "unit": "mmol/L"}, {"measurement": "Change in Blood Glucose, 2 Hours", "setting": "[6]", "value": -2.2, "unit": "mmol/L"}, {"measurement": "Change in Blood Glucose, 3 Hours", "setting": "[6]", "value": -1.8, "unit": "mmol/L"}]}]}
